The record followed here is US10947252B2, “Inhibitors of KEAP1-Nrf2 protein-protein interaction” (Janssen Pharmaceutica NV, priority 2018, dated 2021).

The test system of test [1] is Glo-Response ARE-luc2P HEK293 cell line. The experiment in a line: ARE luciferase reporter cell-based assay.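 Also: luciferase signal tracks Nrf2 activation of the ARE once compounds disrupt KEAP1-Nrf2 binding, read with One-Glo reagent, DMSO serving as low control.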 The following applies: Homo sapiens, HEK293, 24 h, average of results obtained.
Test [2] has as its target Kelch domain of human KEAP1 (321-624 aa) (Homo sapiens (Human), UniProt Q14145). Put plainly: KEAP1 KELCH ThermoFluor binding assay.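 Also: Ligand-induced melting temperature shift of E. coli-expressed KEAP1 Kelch protein, Kd estimated from concentration-response curves of ΔTm.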 The following applies: KEAP Kelch […], 1,8-ANS, pH 7.0, average of results obtained, read-out: Tf Kd. For orientation: DSF heats the sample and reads unfolding from a dye or from intrinsic fluorescence.

A value given as a limit tells only on which side of the number the result lay.

Sequence of Kelch domain of human KEAP1 (321-624 aa) (Q14145 321-624): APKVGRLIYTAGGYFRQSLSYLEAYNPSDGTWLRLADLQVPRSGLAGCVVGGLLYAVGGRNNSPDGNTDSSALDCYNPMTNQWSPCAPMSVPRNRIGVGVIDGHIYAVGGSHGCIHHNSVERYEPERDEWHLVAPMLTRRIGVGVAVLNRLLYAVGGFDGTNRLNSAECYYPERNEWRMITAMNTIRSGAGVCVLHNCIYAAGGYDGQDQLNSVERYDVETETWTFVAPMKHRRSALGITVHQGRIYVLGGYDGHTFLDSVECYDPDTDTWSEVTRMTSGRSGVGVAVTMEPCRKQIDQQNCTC

In the case of `Cc1cnc2c(c1)S(=O)(=O)N(Cc1cc([C@@H](c3ccc4c(nnn4C4CC4)c3C)C(C)(C)C(=O)O)cnc1C)CC1(CCOCC1)O2` (single isomer, unassigned) [Example 229, (*R)-3-(1-Cyclopropyl-4-methyl-1H-benzo[d][1,2,3]triazol-5-yl)-2,2-dimethyl-3-(6-methyl-5-((8′-methyl-1′,1′-dioxido-2,3,5,6-tetrahydrospiro[pyran-4,4′-pyrido[2,3-b][1,4,5]oxathiazepin]-2′(3′H)-yl)methyl)pyridin-3-yl)propanoic Acid], in test [1], the EC50 (in general, the concentration giving half of the maximal effect) was 2430 nM. Further, in test [2], the Kd (usually a measure of binding affinity in units of concentration) is 17000 nM.

In turn, `Cc1ccc([C@H](CC(=O)O)c2ccn3c(C4CC4)nnc3c2C)cc1CN1CC2(CC2)Oc2ncc(F)cc2S1(=O)=O` (single isomer, unassigned) [Example 230, (*S)-3-(3-Cyclopropyl-8-methyl-[1,2,4]triazolo[4,3-a]pyridin-7-yl)-3-(3-((8′-fluoro-1′,1′-dioxidospiro[cyclopropane-1,4′-pyrido[2,3-b][1,4,5]oxathiazepin]-2′(3′H)-yl)methyl)-4-methylphenyl)propanoic Acid] had an EC50 in test [1] of 480 nM. In addition, in test [2], the Kd is < 1 nM.

Take `Cc1ccc([C@H](CC(=O)O)c2ccc3c(nnn3CC3CC3)c2C)cc1CN1C[C@@H]2CCCCN2c2ncccc2S1(=O)=O` (single isomer, unassigned) [Example 232, (*S)-3-(1-(Cyclopropylmethyl)-4-methyl-1H-benzo[d][1,2,3]triazol-5-yl)-3-(3-(((*S)-5,5-dioxido-7,7a,8,9,10,11-hexahydro-6H-dipyrido[2,1-d:2′,3′-f][1,2,5]thiadiazepin-6-yl)methyl)-4-methylphenyl)propanoic Acid]: the half-maximal effective concentration (EC50) in test [1] was 2.6 nM. In addition, the Kd in test [2] was < 1 nM.

For the molecule `Cc1ccc([C@@H](CC(=O)O)c2ccc3c(nnn3CC3CC3)c2C)cc1CN1C[C@@H]2CCCCN2c2ncccc2S1(=O)=O` (single isomer, unassigned) [Example 233, (*R)-3-(1-(Cyclopropylmethyl)-4-methyl-1H-benzo[d][1,2,3]triazol-5-yl)-3-(3-(((*S)-5,5-dioxido-7,7a,8,9,10,11-hexahydro-6H-dipyrido[2,1-d:2′,3′-f][1,2,5]thiadiazepin-6-yl)methyl)-4-methylphenyl)propanoic Acid], the EC50 in test [1] is 80 nM. Moreover, the Kd in test [2] was < 1 nM.

In turn, `Cc1ccc([C@@H](CC(=O)O)c2ccc3c(nnn3CC3CC3)c2C)cc1CN1C[C@H]2CCCCN2c2ncccc2S1(=O)=O` (single isomer, unassigned) [Example 235, (*R)-3-(1-(Cyclopropylmethyl)-4-methyl-1H-benzo[d][1,2,3]triazol-5-yl)-3-(3-(((*R)-5,5-dioxido-7,7a,8,9,10,11-hexahydro-6H-dipyrido[2,1-d:2′,3′-f][1,2,5]thiadiazepin-6-yl)methyl)-4-methylphenyl)propanoic Acid] showed an EC50 in test [1] of 1.9 nM. In test [2], the Kd is < 1 nM.

Regarding `Cc1ccc([C@H](CC(=O)O)c2ccc3c(nnn3CC3CC3)c2C)cc1CN1C[C@H]2CCCCN2c2ncccc2S1(=O)=O` (single isomer, unassigned) [Example 236, (*S)-3-(1-(Cyclopropylmethyl)-4-methyl-1H-benzo[d][1,2,3]triazol-5-yl)-3-(3-(((*R)-5,5-dioxido-7,7a,8,9,10,11-hexahydro-6H-dipyrido[2,1-d:2′,3′-f][1,2,5]thiadiazepin-6-yl)methyl)-4-methylphenyl)propanoic Acid], in test [1], the EC50 amounted to 6.8 nM. Further, in test [2], the dissociation constant (Kd) is < 1 nM.

For `CCn1nnc2c(C)c([C@H](CC(=O)O)c3ccc(C)c(CN4CC5(COC5)Oc5ccccc5S4(=O)=O)n3)ccc21` (single isomer, unassigned) [Example 238, (*S)-3-(6-((1,1-Dioxidospiro[benzo[b][1,4,5]oxathiazepine-4,3′-oxetan]-2(3H)-yl)methyl)-5-methylpyridin-2-yl)-3-(1-ethyl-4-methyl-1H-benzo[d][1,2,3]triazol-5-yl)propanoic Acid], the EC50 in test [1] was 9.7 nM. The dissociation constant Kd in test [2] is < 1 nM.

`CCn1nnc2c(C)c([C@@H](CC(=O)O)c3ccc(C)c(CN4CC5(COC5)Oc5ccccc5S4(=O)=O)n3)ccc21` (single isomer, unassigned) [Example 239, (*R)-3-(6-((1,1-Dioxidospiro[benzo[b][1,4,5]oxathiazepine-4,3′-oxetan]-2(3H)-yl)methyl)-5-methylpyridin-2-yl)-3-(1-ethyl-4-methyl-1H-benzo[d][1,2,3]triazol-5-yl)propanoic Acid] yielded a 50% effective concentration (EC50) in test [1] of 44 nM. Also, in test [2], the Kd was determined as 1.9 nM.

In test [1], `CCn1nnc2c(C)c([C@H](CC(=O)O)c3ccc(C)c(CN4CC5(COC5)Oc5ncccc5S4(=O)=O)n3)ccc21` (single isomer, unassigned) [Example 241, (*S)-3-(6-((1′,1′-Dioxidospiro[oxetane-3,4′-pyrido[2,3-b][1,4,5]oxathiazepin]-2′(3′H)-yl)methyl)-5-methylpyridin-2-yl)-3-(1-ethyl-4-methyl-1H-benzo[d][1,2,3]triazol-5-yl)propanoic Acid] registered an EC50 of 28 nM. The Kd in test [2] is < 1 nM.

For the molecule `CCn1nnc2c(C)c([C@@H](CC(=O)O)c3ccc(C)c(CN4CC5(COC5)Oc5ncccc5S4(=O)=O)n3)ccc21` (single isomer, unassigned) [Example 242, (*R)-3-(6-((1′,1′-Dioxidospiro[oxetane-3,4′-pyrido[2,3-b][1,4,5]oxathiazepin]-2′(3′H)-yl)methyl)-5-methylpyridin-2-yl)-3-(1-ethyl-4-methyl-1H-benzo[d][1,2,3]triazol-5-yl)propanoic Acid], the EC50 in test [1] stood at 110 nM. In addition, the dissociation constant (Kd) in test [2] amounted to 1.8 nM.

In turn, `CCn1nnc2c(C)c([C@H](CC(=O)O)c3ccc(C)c(CN4CC5(CC5)Oc5ncccc5S4(=O)=O)n3)ccc21` (single isomer, unassigned) [Example 244, (*S)-3-(6-((1′,1′-Dioxidospiro[cyclopropane-1,4′-pyrido[2,3-b][1,4,5]oxathiazepin]-2′(3′H)-yl)methyl)-5-methylpyridin-2-yl)-3-(1-ethyl-4-methyl-1H-benzo[d][1,2,3]triazol-5-yl)propanoic Acid] gave an EC50 in test [1] of 35 nM. In addition, the dissociation constant Kd in test [2] was < 1 nM.

In the case of `CCn1nnc2c(C)c([C@@H](CC(=O)O)c3ccc(C)c(CN4CC5(CC5)Oc5ncccc5S4(=O)=O)n3)ccc21` (single isomer, unassigned) [Example 245, (*R)-3-(6-((1′,1′-Dioxidospiro[cyclopropane-1,4′-pyrido[2,3-b][1,4,5]oxathiazepin]-2′(3′H)-yl)methyl)-5-methylpyridin-2-yl)-3-(1-ethyl-4-methyl-1H-benzo[d][1,2,3]triazol-5-yl)propanoic Acid], it took 140 nM to reach a half-maximal effect in test [1] (EC50). Moreover, the Kd in test [2] is < 1 nM.

The molecule `Cc1ccc([C@@H](CC(=O)O)c2cc(OC(F)F)c3c(c2)nnn3C)cc1CN1C[C@H]2CCCN2c2ncccc2S1(=O)=O` (single isomer, unassigned) [Example 248, (*R)-3-(7-(Difluoromethoxy)-1-methyl-1H-benzo[d][1,2,3]triazol-5-yl)-3-(3-(((R)-5,5-dioxido-7a,8,9,10-tetrahydropyrido[2,3-f]pyrrolo[2,1-d][1,2,5]thiadiazepin-6(7H)-yl)methyl)-4-methylphenyl)propanoic Acid] registered an EC50 in test [1] of 48.6 nM. Moreover, the Kd in test [2] was < 1 nM.

As for `CC[C@@H]1CN(Cc2cc([C@H](CC(=O)O)c3cc(OC(F)F)c4c(c3)nnn4C)ccc2C)S(=O)(=O)c2cccnc2O1` (single isomer, unassigned) [Example 250, (*S)-3-(7-(Difluoromethoxy)-1-methyl-1H-benzo[d][1,2,3]triazol-5-yl)-3-(3-(((R)-4-ethyl-1,1-dioxido-3,4-dihydro-2H-pyrido[2,3-b][1,4,5]oxathiazepin-2-yl)methyl)-4-methylphenyl)propanoic Acid], it took 32.8 nM to reach a half-maximal effect in test [1] (EC50). Besides, the equilibrium dissociation constant (Kd) in test [2] was < 1 nM.

`CC[C@@H]1CN(Cc2cc([C@@H](CC(=O)O)c3cc(OC(F)F)c4c(c3)nnn4C)ccc2C)S(=O)(=O)c2cccnc2O1` (single isomer, unassigned) [Example 251, (*R)-3-(7-(Difluoromethoxy)-1-methyl-1H-benzo[d][1,2,3]triazol-5-yl)-3-(3-(((R)-4-ethyl-1,1-dioxido-3,4-dihydro-2H-pyrido[2,3-b][1,4,5]oxathiazepin-2-yl)methyl)-4-methylphenyl)propanoic Acid]: in test [1], it took 24.1 nM to reach a half-maximal effect (EC50). Moreover, in test [2], the Kd is < 1 nM.

In test [1], `Cc1ccc([C@H](CC(=O)O)c2ccn3c(C(F)(F)F)nnc3c2)cc1CN1C[C@@H]2CCCN2c2ncccc2S1(=O)=O` (single isomer, unassigned) [Example 254, (*S)-3-(3-(((S)-5,5-Dioxido-7a,8,9,10-tetrahydropyrido[2,3-f]pyrrolo[2,1-d][1,2,5]thiadiazepin-6(7H)-yl)methyl)-4-methylphenyl)-3-(3-(trifluoromethyl)-[1,2,4]triazolo[4,3-a]pyridin-7-yl)propanoic Acid] gave an EC50 of 3400 nM. The Kd in test [2] was < 1 nM.

`Cc1ccc([C@@H](CC(=O)O)c2ccn3c(C(F)(F)F)nnc3c2)cc1CN1C[C@@H]2CCCN2c2ncccc2S1(=O)=O` (single isomer, unassigned) [Example 255, (*R)-3-(3-(((S)-5,5-Dioxido-7a,8,9,10-tetrahydropyrido[2,3-f]pyrrolo[2,1-d][1,2,5]thiadiazepin-6(7H)-yl)methyl)-4-methylphenyl)-3-(3-(trifluoromethyl)-[1,2,4]triazolo[4,3-a]pyridin-7-yl)propanoic Acid] came in with an EC50 in test [1] of 922 nM. The Kd in test [2] was < 1 nM.

In test [1], `CC[C@@H]1CN(Cc2cc([C@H](CC(=O)O)c3ccn4c(C(F)(F)F)nnc4c3)ccc2C)S(=O)(=O)c2cccnc2O1` (single isomer, unassigned) [Example 257, (*S)-3-(3-(((R)-4-Ethyl-1,1-dioxido-3,4-dihydro-2H-pyrido[2,3-b][1,4,5]oxathiazepin-2-yl)methyl)-4-methylphenyl)-3-(3-(trifluoromethyl)-[1,2,4]triazolo[4,3-a]pyridin-7-yl)propanoic Acid] returned an EC50 of 574 nM. Moreover, the Kd in test [2] was < 1 nM.
